Results as given in patent US10399931B2, “Octahydroanthracene compound, preparation method and application thereof” (SHANDONG XINHUA PHARMACEUTICAL CO., LTD., priority 2016, dated 2019).
Read-outs that look alike come from different tables or passages of the source.

Columns and labels:
[1] = system: Human leukemia HL60 cells; assay: MTT assay, proliferation of human leukemia HL60 cells; type: cell-based; conditions: Homo sapiens, HL-60, 48 h, read-out: Inhibitive rate (%) against HL60 cells
Protocol: (§1) The survival rate of cells was determined by MTT assay, which is based on the metabolic reduction of 3-(4,5-dimethyl-2thiahiazoyl)-3,5-di-phenyl-tetrazolium bromide (MTT) by viable cells. MTT is a yellow compound, a dye that accepts hydrogen ion, which can act on the respiratory chain in the mitochondria of viable cells. Under the action of succinate dehydrogenase and cytochrome C, the tetrazolium ring was cleaved to form blue Formazan crystals, and the amount of Formazan crystals generated was only proportional to the number of the viable cells. The enzymes disappeared in dead cells, so Formazan crystals could not be dissolved in MTT solution containing 20% sodium dodecyl sulfate (pH 4.7).
(§2) The cells in the logarithmic growth phase were selected and adjusted to an appropriate cell density, seeded in a 96-well plate, 100 μl/well, and cultured in a 37° C., 5% CO2 incubator. The cells were allowed to adhere overnight, then the culture medium was replaced and the drug was added to cultivate for 48 h. A blank control group, a drug administration group and a positive control group were set, with four repeats in each group.
(§3) After 48 h of drug treatment, the cells were incubated with 0.25 mg/ml MTT at 37° C. for 3-4 h, and 100 μl of dimethyl sulfoxide (DMSO) was added to each well after aspirating the culture solution.

[2] = system: Human cutaneous T-cell lymphoma Hut102 cells; assay: MTT assay, proliferation of human cutaneous T-cell lymphoma Hut102 cells; type: cell-based
Protocol: as §1, §2, §3

APP/PS1 transgenic mice = assay: Nesting experiment; type: in vivo; conditions: at 12 h
From the text: Each mouse was separately housed in a cage. On the first day of the test, two pieces of cotton (5 cm×5 cm) were placed in the cage. […]

[3] = HuT-102, 10 μM, Mean ± SE, read-out: Inhibitive rate (%) against Hut102 cells

Structure (SMILES)	inhibition at 10 µM ([1]; 10 μM, 48 h, Mean ± SE) [%]	inhibition at 10 µM [2, 3] [%]	inhibition at 10 µM [1] [%]	inhibition at 10 µM ([2]; HuT-102, read-out: Inhibitive rate (%) against Hut102 cells) [%]	Nesting ability vs model group (APP/PS1 transgenic mice)
CC1(C)CCC(C)(C)c2c1cc1c(c2NC(=O)c2ccc(C(=O)Nc3ccccc3N)cc2)C(C)(C)CCC1(C)C [OAA-4, N-(2-aminophenyl)-4-[(1,1,4,4,5,5,8,8-octamethyl-1,2,3,4,5,6,7,8-octahydro-9-anthryl)carbamoyl] benzamide]	12.5 ± 1.32	30.3 ± 0.7	–	–	–
CN(C)CCNC(=O)c1ccc(C(=O)Nc2c3c(cc4c2C(C)(C)CCC4(C)C)C(C)(C)CCC3(C)C)cc1 [OAA-7, N-[2-(N,N-dimethylamino)]ethyl-4-[(1,1,4,4,5,5,8,8-octamethyl-1,2,3,4,5,6,7,8-octahydro-9-anthryl)carbamoyl] benzamide]	10.8 ± 0.69	8.34 ± 4.37	–	–	–
CC1(C)CCC(C)(C)c2c1cc1c(c2NC(=O)c2ccc(NC(=O)NCCCO)cc2)C(C)(C)CCC1(C)C [OAB-18, 1-(3-hydroxy) propyl-3-{4-[(1,1,4,4,5,5,8,8-octamethyl-1,2,3,4,5,6,7,8-octahydro-9-anthryl)carbamoyl]phenyl} urea]	2.47 ± 2.64	4.32 ± 1.29	–	–	–
CC1(C)CCC(C)(C)c2c1cc1c(c2NC(=O)c2ccc(NC(=O)N3CCC(C(=O)O)CC3)cc2)C(C)(C)CCC1(C)C [OAB-9, N-{4-[(1,1,4,4,5,5,8,8-octamethyl-1,2,3,4,5,6,7,8-octahydro-9-anthryl)carbamoyl]phenylcarbamoyl}-4-piperidinyl Formic Acid]	8.03 ± 1.07	-0.3 ± 1.13	–	–	–
COC(=O)c1ccc(C(=O)Nc2c3c(cc4c2C(C)(C)CCC4(C)C)C(C)(C)CCC3(C)C)cc1 [OAA-1, 4-[(1,1,4,4,5,5,8,8-octamethyl-1,2,3,4,5,6,7,8-octahydro-9-anthryl)carbamoyl] methyl Benzoate]	8.27 ± 1.57	7.11 ± 1.06	–	–	–
CC1(C)CCC(C)(C)c2c1cc1c(c2NC(=O)c2ccc(NC(=O)N3CCOCC3)cc2)C(C)(C)CCC1(C)C [OAB-3, 4-[(1,1,4,4,5,5,8,8-octamethyl-1,2,3,4,5,6,7,8-octahydro-9-anthryl)carbamoyl] phenylcarbamoyl-1-morpholine]	1.71 ± 5.44	-0.89 ± 3.47	–	–	–
CC1(C)CCC(C)(C)c2c1cc1c(c2NC(=O)c2ccc(NC(=O)NO)cc2)C(C)(C)CCC1(C)C [OAB-15, 1-hydroxy-3-{4-[(1,1,4,4,5,5,8,8-octamethyl-1,2,3,4,5,6,7,8-octahydro-9-anthryl)carbamoyl]phenyl} urea]	0.59 ± 1.44	2.3 ± 3.26	–	–	–
CCN(CC)CCNC(=O)c1ccc(C(=O)Nc2c3c(cc4c2C(C)(C)CCC4(C)C)C(C)(C)CCC3(C)C)cc1 [OAA-5, N-[2-(N,N-diethylamino)]ethyl-4-[(1,1,4,4,5,5,8,8-octamethyl-1,2,3,4,5,6,7,8-octahydro-9-anthryl)carbamoyl] benzamide]	16.6 ± 1.43	27.7 ± 2.38	–	–	–
CC1(C)CCC(C)(C)c2c1cc1c(c2NC(=O)c2ccc(C(=O)O)cc2)C(C)(C)CCC1(C)C [OAA-2, 4-[(1,1,4,4,5,5,8,8-octamethyl-1,2,3,4,5,6,7,8-octahydro-9-anthryl)carbamoyl] benzoic Acid]	3.06 ± 2.23	-3.63 ± 1.07	–	–	–
CC1(C)CCC(C)(C)c2c1cc1c(c2NC(=O)c2ccc(NC(=O)Nc3ccccc3O)cc2)C(C)(C)CCC1(C)C [OAB-10, 1-(2-hydroxyphenyl)-3-{4-[(1,1,4,4,5,5,8,8-octamethyl-1,2,3,4,5,6,7,8-octahydro-9-anthryl)carbamoyl]phenyl} urea]	7.21 ± 0.96	17.1 ± 0.93	–	–	–
CC1(C)CCC(C)(C)c2c1cc1c(c2NC(=O)c2ccc(N(S(C)(=O)=O)S(C)(=O)=O)cc2)C(C)(C)CCC1(C)C [OAB-5, N,N-dimethylsulfonyl-4-[(1,1,4,4,5,5,8,8-octamethyl-1,2,3,4,5,6,7,8-octahydro-9-anthryl)carbamoyl] aniline]	42.3 ± 1.05	29.1 ± 1.39	–	–	–
CC1(C)CCC(C)(C)c2c1cc1c(c2NC(=O)c2ccc(NC(=O)ON)cc2)C(C)(C)CCC1(C)C [OAB-16, 4-[(1,1,4,4,5,5,8,8-octamethyl-1,2,3,4,5,6,7,8-octahydro-9-anthryl)carbamoyl] phenyl Carbamic Acid-O-Amino Ester]	1.67 ± 3.24	8.38 ± 2.31	–	–	–
CC1(C)CCC(C)(C)c2c1cc1c(c2NC(=O)c2ccc(C(=O)Nc3ccccc3O)cc2)C(C)(C)CCC1(C)C [OAA-12, N-(2-hydroxyphenyl)-4[(1,1,4,4,5,5,8,8-octamethyl-1,2,3,4,5,6,7,8-octahydro-9-anthryl)carbamoyl] benzamide]	–	25.1 ± 0.65	–	–	–
CC1(C)CCC(C)(C)c2c1cc1c(c2NC(=O)c2ccc(NC(=O)Nc3ccccc3N)cc2)C(C)(C)CCC1(C)C [OAB-4, 1-(2-aminophenyl)-3-{4-[(1,1,4,4,5,5,8,8-octamethyl-1,2,3,4,5,6,7,8-octahydro-9-anthryl)carbamoyl]phenyl} urea]	15.4 ± 1.16	34 ± 0.93	–	–	–
CCOC(=O)Nc1ccc(C(=O)Nc2c3c(cc4c2C(C)(C)CCC4(C)C)C(C)(C)CCC3(C)C)cc1 [OAB-2, 4-[(1,1,4,4,5,5,8,8-octamethyl-1,2,3,4,5,6,7,8-octahydro-9-anthryl)carbamoyl] ethyl phenylcarbamate]	–	–	4.51 ± 1.8	6.58 ± 1.51	–
COC(=O)Nc1ccc(C(=O)Nc2c3c(cc4c2C(C)(C)CCC4(C)C)C(C)(C)CCC3(C)C)cc1 [OAB-8, 4-[(1,1,4,4,5,5,8,8-octamethyl-1,2,3,4,5,6,7,8-octahydro-9-anthryl)carbamoyl] methyl Phenylcarbamate]	7.24 ± 4.74	-1.05 ± 3.08	–	–	–
CC1(C)CCC(C)(C)c2c1cc1c(c2NC(=O)c2ccc(C(=O)NO)cc2)C(C)(C)CCC1(C)C [OAA3, N-hydroxy-4-[(1,1,4,4,5,5,8,8-octamethyl-1,2,3,4,5,6,7,8-octahydro-9-anthryl)carbamoyl] benzamide]	4.79 ± 6.65	11.3 ± 0.46	–	–	–
CC1(C)CCC(C)(C)c2c1cc1c(c2NC(=O)c2ccc(N)cc2)C(C)(C)CCC1(C)C [OAB-1, 4[(1,1,4,4,5,5,8,8-octamethyl-1,2,3,4,5,6,7,8-octahydro-9-anthryl)carbamoyl] aniline]	5.95 ± 2.98	5.43 ± 2.54	–	–	–
CC1(C)CCC(C)(C)c2c1cc1c(c2NC(=O)c2ccc(NC(=O)NCCCC(=O)O)cc2)C(C)(C)CCC1(C)C [OAB-7, 1-(4-carboxypropyl)-3-{4-[(1,1,4,4,5,5,8,8-octamethyl-1,2,3,4,5,6,7,8-octahydro-9-anthryl)carbamoyl]phenyl} urea]	1.76 ± 1.41	5.6 ± 3	–	–	–
COc1cc2c(cc1OC)C(=O)C(CC1CCN(Cc3ccccc3)CC1)C2 (centres unmarked) [donepezil, reference compound]	–	–	–	–	significantly increased
